Laboratory results as given in patent US6737383B1, “Herbicidal oxadiazolidines” (priority 1999, dated 2004).

Experiments:
[1] = system: rape; assay: Test B pre/postemergence rape; format: in vivo, Brassica napus
In short: (§1)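 Herbicidal effect was estimated by eye on a ten-point control scale after plants spent twelve to sixteen days in a greenhouse following soil or foliar treatment. Foliar sprays targeted plants at one to four leaves; all doses were formulated in a non-phytotoxic solvent with surfactant.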

[2] = system: giant foxtail; assay: Test B pre/postemergence giant foxtail; format: in vivo, Setaria faberii
In short: as §1

[3] = system: purple nutsedge; assay: Test B pre/postemergence purple nutsedge; format: in vivo, Cyperus rotundus
In short: as §1

[4] = system: sugar beet; assay: Test B pre/postemergence sugar beet; format: in vivo, Beta vulgaris
In short: as §1

[5] = system: bedstraw; assay: Test B pre/postemergence bedstraw; format: in vivo, Galium aparine
In short: as §1

[6] = system: morningglory; assay: Test B pre/postemergence morningglory; format: in vivo, Ipomoea hederacea
In short: as §1

[7] = system: velvetleaf; assay: Test B pre/postemergence velvetleaf; format: in vivo, Abutilon theophrasti
In short: as §1

[8] = system: crabgrass; assay: Test B pre/postemergence crabgrass; format: in vivo, Digitaria sanguinalis
In short: as §1

[9] = system: cocklebur; assay: Test B pre/postemergence cocklebur; format: in vivo, Xanthium strumarium
In short: as §1

[10] = system: wheat; assay: Test B pre/postemergence wheat; format: in vivo, Triticum aestivum
In short: as §1

[11] = system: pigweed; assay: Test B pre/postemergence pigweed; format: in vivo, Amaranthus retroflexus
In short: as §1

[12] = system: surinam grass; assay: Test B pre/postemergence surinam grass; format: in vivo, Brachiaria decumbens
In short: as §1

[13] = system: wild oat; assay: Test B pre/postemergence wild oat; format: in vivo, Avena fatua
In short: as §1

[14] = system: corn; assay: Test B pre/postemergence corn; format: in vivo, Zea mays
In short: as §1

[15] = system: blackgrass; assay: Test B pre/postemergence blackgrass; format: in vivo, Alopecurus myosuroides
In short: as §1

[16] = system: soybean; assay: Test B pre/postemergence soybean; format: in vivo, Glycine max
In short: as §1

[17] = Postemergence, Rate 62 g/ha, scale 0 to 10, 0 is no effect, 10 is complete control
[18] = Postemergence, Rate 500 g/ha, scale 0 (no effect) to 10 (complete control)
[19] = Preemergence, Rate 125 g/ha, scale of 0 to 10 where 0 is no effect and 10 is complete control
[20] = Preemergence, Rate 250 g/ha, scale 0 (no effect) to 10 (complete control)
[21] = Rate 62 g/ha, Preemergence, scale 0 to 10
[22] = Rate 250 g/ha, Postemergence, scale 0 to 10, 0 is no effect, 10 is complete control
[23] = Rate 500 g/ha, Preemergence, scale 0 to 10 (0 no effect, 10 complete control)
[24] = Postemergence, Rate 125 g/ha, scale of 0 to 10 where 0 is no effect and 10 is complete control

CC(C)N(C(=O)n1oc(=O)n(CCN(C)C(=O)c2ccccc2)c1=O)c1ccc(F)cc1F [Compound 762]
0: Plant response rating, Rape [1, 17] | Rape plant response rating [1, 18] | Plant response rating, Rape [1, 19] | Rape plant response rating [1, 20] | Rape plant response rating [1, 21] | Rape plant response rating [1, 22] | Rape plant response rating [1, 23] | Giant foxtail plant response rating [2, 24] | Plant response rating, Nutsedge [3, 17] | Nutsedge plant response rating [3, 24] | Plant response rating, Nutsedge [3, 19] | Nutsedge plant response rating [3, 20] | Nutsedge plant response rating [3, 21] | Nutsedge plant response rating [3, 22] | Plant response rating, Sugarbeets [4, 17] | Plant response rating, Sugarbeets [4, 19] | Sugarbeets plant response rating [4, 21] | Plant response rating, Bedstraw [5, 17] | Bedstraw plant response rating [5, 24] | Bedstraw plant response rating [5, 18] | Plant response rating, Bedstraw [5, 19] | Bedstraw plant response rating [5, 20] | Bedstraw plant response rating [5, 21] | Bedstraw plant response rating [5, 22] | Bedstraw plant response rating [5, 23] | Plant response rating, Morningglory [6, 17] | Plant response rating, Morningglory [6, 19] | Morningglory plant response rating [6, 20] | Morningglory plant response rating [6, 21] | Morningglory plant response rating [6, 23] | Plant response rating, Velvetleaf [7, 17] | Plant response rating, Velvetleaf [7, 19] | Velvetleaf plant response rating [7, 20] | Velvetleaf plant response rating [7, 21] | Plant response rating, Crabgrass [8, 17] | Crabgrass plant response rating [8, 24] | Crabgrass plant response rating [8, 23] | Plant response rating, Cocklebur [9, 17] | Cocklebur plant response rating [9, 24] | Cocklebur plant response rating [9, 18] | Plant response rating, Cocklebur [9, 19] | Cocklebur plant response rating [9, 20] | Cocklebur plant response rating [9, 21] | Cocklebur plant response rating [9, 22] | Cocklebur plant response rating [9, 23] | Plant response rating, Wheat [10, 17] | Wheat plant response rating [10, 18] | Plant response rating, Wheat [10, 19] | Wheat plant response rating [10, 20] | Wheat plant response rating [10, 21] | Wheat plant response rating [10, 22] | Wheat plant response rating [10, 23] | Plant response rating, Redroot pigweed [11, 17] | Redroot pigweed plant response rating [11, 24] | Plant response rating, B. signalgrass [12, 17] | B. signalgrass plant response rating [12, 24] | B. signalgrass plant response rating ([12]; Preemergence, Rate 62 g/ha, scale of 0 to 10 where 0 is no effect and 10 is complete control) | Plant response rating, B. signalgrass [12, 19] | Plant response rating, Wild oats [13, 17] | Plant response rating, Wild oats [13, 19] | Wild oats plant response rating [13, 20] | Wild oats plant response rating [13, 21] | Wild oats plant response rating [13, 22] | Wild oats plant response rating [13, 23] | Plant response rating, Corn [14, 17] | Corn plant response rating [14, 24] | Plant response rating, Corn [14, 19] | Corn plant response rating [14, 20] | Corn plant response rating [14, 21] | Corn plant response rating [14, 23] | Plant response rating, Blackgrass [15, 17] | Blackgrass plant response rating [15, 24] | Blackgrass plant response rating [15, 18] | Plant response rating, Blackgrass [15, 19] | Blackgrass plant response rating [15, 21] | Blackgrass plant response rating [15, 22] | Plant response rating, Soybean [16, 19] | Soybean plant response rating [16, 20] | Soybean plant response rating [16, 21] | Soybean plant response rating [16, 23]
9: Giant foxtail plant response rating [2, 20] | Giant foxtail plant response rating [2, 23] | B. signalgrass plant response rating [12, 23] | Blackgrass plant response rating [15, 23]
4: Sugarbeets plant response rating [4, 20] | Sugarbeets plant response rating [4, 23] | Plant response rating, Crabgrass [8, 19] | Crabgrass plant response rating [8, 20] | Soybean plant response rating [16, 18] | Soybean plant response rating [16, 22]
10: Plant response rating, Giant foxtail [2, 19]
3: Nutsedge plant response rating [3, 18] | Velvetleaf plant response rating [7, 18] | Velvetleaf plant response rating [7, 22] | Crabgrass plant response rating [8, 22] | Redroot pigweed plant response rating [11, 20] | Redroot pigweed plant response rating [11, 23] | B. signalgrass plant response rating ([12]; Rate 500 g/ha, Postemergence, scale 0 to 10, 0 is no effect, 10 is complete control)
5: Giant foxtail plant response rating [2, 21] | Velvetleaf plant response rating [7, 23]
6: Nutsedge plant response rating [3, 23] | Sugarbeets plant response rating [4, 18] | Sugarbeets plant response rating [4, 22] | Redroot pigweed plant response rating [11, 18] | Redroot pigweed plant response rating [11, 22] | B. signalgrass plant response rating [12, 20]
2: Morningglory plant response rating [6, 24] | Morningglory plant response rating [6, 18] | Morningglory plant response rating [6, 22] | Plant response rating, Redroot pigweed [11, 19] | Redroot pigweed plant response rating [11, 21] | B. signalgrass plant response rating [12, 22] | Wild oats plant response rating [13, 18] | Corn plant response rating [14, 18] | Corn plant response rating [14, 22] | Plant response rating, Soybean [16, 17]
8: Giant foxtail plant response rating [2, 22] | Crabgrass plant response rating [8, 18]
7: Blackgrass plant response rating [15, 20]
